In PubChem BioAssay (NCI) one finds GI50 and TGI data, which are given here for twelve compounds.

“And” between values parts separate entries of the source, which are not always exact repeats. Equal values may be shown once.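 Step 1: Grow cells in 96-well plates. Step 2: Expose to compound for 48 hours at 5 concentrations. Step 3: Interpolate endpoints linearly; if unreached, use highest concentration. GI50 is the concentration that inhibits growth by half. At the TGI there is no net growth.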 Where only a bound is given, the exact number is not on record here.

What all share (test): NCI tumour cell line growth inhibition, 48 h
Test [1] has as its system PC-3 prostate.
In test [2] the test system is SK-MEL-5 melanoma.
Test [3] relates to K-562 leukemia.
The subject of test [4] is ACHN renal.
Test [5] relates to M14 melanoma.
In test [6] the test system is KM12 colon.
Test [7] relates to EKVX NSCLC.
Test [8] deals with MCF7 breast.
Test [9] concerns 786-0 renal.
The subject of test [10] is CAKI-1 renal.

Take `COc1ccc(/C=C\c2cc(OC)c(OC)c(OC)c2)cc1OC(=O)CC(N)C(=O)O` (stereo not given): the GI50 in [1] was 0.00227 µM; in test [2], 0.000453 µM and 0.00141 µM; in test [3], 0.000493 µM; in test [4], 0.000709 µM; in test [5], 0.00046 µM; in [6], 0.000979 µM. Moreover, the GI50 in [8] was 0.0244 µM; in test [9] it was 0.000174 µM. Further, the TGI in [3], in test [4] and in test [7] was over 100 µM each time.

`O=C1NC2(CCCCC2)C2CCCCC=C12` (stereo not given): the TGI in [2], in test [3], in test [4], in test [5], in test [6] and in test [7] was over 100 µM throughout. The TGI in test [10] and in test [9] was over 100 µM each time.

For the compound `C[C@]12CC(C=O)C(=O)C(O)=C1CC[C@@H]1C2CC[C@@]2(C)C1CC[C@]2(C)O` (stereo not given in full), the TGI is 34.5 µM in [2]; over 100 µM in test [3]; 51.2 µM in [4]; 35 µM in test [5]; 74.6 µM in test [6]; 96 µM in test [7]. Also, the TGI in test [9] stood at 44.4 µM.

With `COC(=O)c1ccc(C(=O)OC)c2nc3cc(Cl)ccc3nc12`, the TGI in test [2], in test [3], in [4], in [5], in [6] and in test [7] was over 100 µM in each case. Also, the TGI in [10] and in test [9] was over 100 µM in each case.

In the case of `CCC[CH2][Sn]([CH2]CCC)([O]C(=O)c1cc(F)ccc1F)[O]C(=O)c1cc(F)ccc1F`, the GI50 in test [2] was 1.57 µM; in [3], 0.294 µM; in test [4], 1.4 µM; in test [5], 1.47 µM; in test [6], 1.6 µM; in [7], 1.26 µM. The GI50 in test [10] is 1.06 µM; in [9], 1.15 µM. Moreover, the TGI in [2] worked out at 2.91 µM; in [3] it was 1.35 µM; in test [4] it was 2.7 µM; in test [5] it was 2.81 µM; in [6], 3.28 µM; in test [7] it was 2.51 µM. For the same compound, the TGI was 2.27 µM in test [10] and 2.37 µM in [9].

As to `C=C1C(=O)O[C@H]2[C@H]1CC/C(COC(=O)CCCCCCCC(=O)OC/C1=C/CC[C@@]3(C)O[C@H]3[C@H]3OC(=O)C(=C)[C@@H]3CC1)=C\CC[C@@]1(C)O[C@@H]21`, the GI50 in [1] was 1.96 µM; in [2], 1.98 µM; in test [3] it was 0.927 µM; in test [4] it was 1.85 µM; in test [5], 1.77 µM; in [6], 1.95 µM. The GI50 in test [7] is 2.55 µM; in test [9], 1.68 µM. Moreover, the TGI stood at 4.62 µM in test [1]; 4.1 µM in test [2]; 10.8 µM in test [3]; 5.51 µM in test [4]; 4.11 µM in [5]; 4.26 µM in test [6]. For the same compound, the TGI in test [7] amounted to 8.87 µM; in test [9], 3.63 µM.

`CCCS(=O)c1nc(COC(=O)NC)c(COC(=O)NC)n1C` (stereo not given): the TGI in [2], in test [3], in test [5], in test [6], in test [7] and in [8] was over 100 µM each time. Further, the TGI in [10] and in [9] was over 100 µM throughout.

In the case of `O=[N+]([O-])c1cccc(S(=O)(=O)N/N=C/c2cc(I)cc([N+](=O)[O-])c2O)c1`, the TGI in [2] is 44 µM; in [3], 58.4 µM; in test [4], 95.8 µM; in [5] it was 77 µM; in test [6], over 100 µM; in test [7], 80 µM. Besides, the TGI in test [10] is 50.9 µM; in test [9] it was over 100 µM.

Regarding `O=C1C(Cl)=C(Cl)C(=O)N1c1cccc(C(F)(F)F)c1`, the TGI in [2], in test [3], in test [4], in test [5], in test [6] and in [7] was over 100 µM throughout. Besides, the figures for the TGI in test [10] and in [9] were 98 µM and over 100 µM, respectively.

For the compound `COC(=O)C12C34C=CC5(CCC6(C=CC1(CC3)O6)C52C(=O)OC)O4` (stereo not given), the TGI in [3], in test [4], in [6], in test [7], in test [10] and in [9] was over 100 µM in each case.

In the case of `COc1ccc2c(CCCc3ccc(Cl)cc3Cl)c3[n+](cc2c1OC)CCc1cc2c(cc1-3)OCO2`, the GI50 was 0.279 µM in test [1]; 0.212 µM in test [2]; 1.44 µM in test [4]; 0.485 µM in test [5]; 0.362 µM in [6]; 0.467 µM in test [7]. Besides, the GI50 was 5.1 µM in [10] and 1.27 µM in test [9]. In addition, the TGI amounted to 1.24 µM in [1]; 0.561 µM in [2]; 3.15 µM in [4]; 1.88 µM in [5]; 1.48 µM in test [6]; 1.99 µM in [7]. Besides, the TGI in test [10] is 23.7 µM; in [9] it was 2.74 µM.

Consider `Cc1cc(-c2nc3n(c2/C=N/N=C(N)N)CCS3)c(C)s1`, for which the GI50 in test [1] was 13.1 µM; in test [2], 16.3 µM; in [3], 19.1 µM; in [4] it was 20 µM; in test [5], 18.9 µM; in test [6], 6.7 µM. For the same compound, the GI50 was 15.2 µM in test [7], 8.02 µM in test [10] and 17.1 µM in test [9]. Further, the TGI in [1] is 27.7 µM; in [2], 29.9 µM; in [3], 42.4 µM; in test [4], 39.5 µM; in test [5] it was 32.9 µM; in [6], 21.2 µM. Besides, the TGI in test [7] came out at 34.6 µM; in test [10], 23.8 µM; in test [9], 30.8 µM.
